Reference: patent publication US11629171B2, “Beta-hairpin peptidomimetics” (POLYPHOR AG, priority 2017, dated 2023)
Converted amounts (≈) assume the structure as drawn. Where a SMILES comes first, the peptide text is derived from it. Bridges are numbered along the chain shown (N, C = ends). Roman numbers before positions name the chains, in order. [ ]: non-standard residue; d: D form. Tle = CC(C)(C)[C@H](N)C(=O)O; Hiv = CC(C)[C@H](O)C(=O)O; dDab = NCC[C@@H](N)C(=O)O; Dab = NCC[C@H](N)C(=O)O; Dap = NC[C@H](N)C(=O)O

What was measured:
Format in all cases: cell-based
[1] = system: human red blood cells (hRBC); test: Hemolysis; details: red cells of human, 1 h, 200
Summary of the method: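 Read-out is supernatant absorbance at 540 nm, normalised to full lysis by 2% Triton X-100 and zero lysis by PBS with 10% water. Peptides (200 μg/mL) were exposed to 20% v/v washed human erythrocytes at 37° C for 1 h under shaking.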

[2] = system: Acinetobacter baumannii DSM 30008; details: DSM 30008
Summary of the method: (§1)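 Cation-adjusted MH-II broth, 0.002% polysorbate 80, inoculum near 10^6 CFU/mL. MIC read visually after 18-20 h, 35° C; units μg/mL.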

[3] = system: Klebsiella pneumoniae 968733; details: 968733
Summary of the method: as §1

[4] = system: Acinetobacter baumannii 872842; details: 872842
Summary of the method: as §1

[5] = system: Enterobacter cloacae 848840; details: 848840
Summary of the method: as §1

[6] = system: Pseudomonas aeruginosa ATCC 27853; details: ATCC 27853
Summary of the method: as §1

Escherichia coli 926415 = details: 926415
Summary of the method: as §1

[7] = system: Klebsiella pneumoniae SSI #3010; details: SSI #3010
Summary of the method: as §1

[8] = system: Escherichia coli ATCC 25922; details: ATCC 25922
Summary of the method: as §1

Row | Structure (SMILES) | Acinetobacter baumannii DSM 30008 MIC [2] [µg/mL] | MIC [3] [µg/mL] | MIC [4] [µg/mL] | MIC [5] [µg/mL] | Pseudomonas aeruginosa ATCC 27853 MIC [6] [µg/mL] | MIC (Escherichia coli 926415) [µg/mL] | Klebsiella pneumoniae SSI #3010 MIC [7] [µg/mL] | Escherichia coli ATCC 25922 MIC [8] [µg/mL] | Hemolysis at 200 μg/mL [1] [%]
1 | CC(=O)N[C@H](C(=O)N[C@H]1CSSC[C@@H](C(=O)N[C@@H](CO)C(=O)N[C@@H](CC(=O)O)C(N)=O)NC(=O)[C@H](C(C)C)NC(=O)[C@H](CO)NC(=O)[C@H](Cc2c[nH]c3ccccc23)NC(=O)[C@H](CCN)NC(=O)[C@@H](CCN)NC(=O)[C@H](CCC(=O)N[C@@H](CCN)C(=O)N[C@H](C(=O)N[C@@H](CN)C(=O)N[C@H]2CCNC(=O)[C@H]([C@@H](C)O)NC(=O)[C@H](CCN)NC(=O)[C@H](CCN)NC(=O)[C@H](CC(C)C)NC(=O)[C@@H](CC(C)C)NC(=O)[C@H](CCN)NC2=O)[C@@H](C)O)NC(=O)[C@H](CO)NC(=O)[C@H](Cc2ccc(O)cc2)NC1=O)C(C)C [Ex. 371] (I: Ac-VCYSE[dDab][Dab]WSVCSD-NH2 / II: [Dab]T[Dap][Dab][Dab][dL]L[Dab][Dab]T; disulfide I:2-I:11; amide I:5-II:N; lactam II:4-II:C) | 0.0625 | 0.5 (≈ 0.199 µM) | 0.0625 (≈ 0.0249 µM) | 0.5 (≈ 0.199 µM) | 0.0625 | 0.25 (≈ 0.0994 µM) | 0.0625 | 0.0625 | 0
2 | CC(=O)N[C@H](C(=O)N[C@H]1CSSC[C@@H](C(=O)N[C@@H](CO)C(=O)N[C@@H](CC(N)=O)C(N)=O)NC(=O)[C@H](C(C)C)NC(=O)[C@H](CO)NC(=O)[C@H](Cc2c[nH]c3ccccc23)NC(=O)[C@H](CCN)NC(=O)[C@@H](CCN)NC(=O)[C@H](CCC(=O)N[C@@H](CCN)C(=O)N[C@H](C(=O)N[C@@H](CN)C(=O)N[C@H]2CCNC(=O)[C@H]([C@@H](C)O)NC(=O)[C@H](CCN)NC(=O)[C@H](CCN)NC(=O)[C@H](CC(C)C)NC(=O)[C@@H](CC(C)C)NC(=O)[C@H](CCN)NC2=O)[C@@H](C)O)NC(=O)[C@H](CO)NC(=O)[C@H](Cc2ccc(O)cc2)NC1=O)C(C)C [Ex. 373] (I: Ac-VCYSE[dDab][Dab]WSVCSN-NH2 / II: [Dab]T[Dap][Dab][Dab][dL]L[Dab][Dab]T; disulfide I:2-I:11; amide I:5-II:N; lactam II:4-II:C) | 0.03125 | 0.125 (≈ 0.0497 µM) | 0.0625 (≈ 0.0249 µM) | 0.25 (≈ 0.0995 µM) | 0.0625 | 0.125 (≈ 0.0497 µM) | 0.0625 | 0.0625 | <1
3 | CC(=O)N[C@H](C(=O)N[C@H]1CSSC[C@@H](C(=O)NCC(=O)N[C@H](CO)C(N)=O)NC(=O)[C@H](C(C)C)NC(=O)[C@H](CO)NC(=O)[C@H](Cc2c[nH]c3ccccc23)NC(=O)[C@H](CO)NC(=O)[C@@H](CCN)NC(=O)[C@H](CCC(=O)N[C@@H](CCN)C(=O)N[C@H](C(=O)N[C@@H](CN)C(=O)N[C@H]2CCNC(=O)[C@H]([C@@H](C)O)NC(=O)[C@H](CCN)NC(=O)[C@H](CCN)NC(=O)[C@H](CC(C)C)NC(=O)[C@@H](CC(C)C)NC(=O)[C@H](CCN)NC2=O)[C@@H](C)O)NC(=O)[C@H](CCN)NC(=O)[C@H](Cc2ccc(O)cc2)NC1=O)C(C)C [Ex. 377] (I: Ac-VCY[Dab]E[dDab]SWSVCG[dS]-NH2 / II: [Dab]T[Dap][Dab][Dab][dL]L[Dab][Dab]T; disulfide I:2-I:11; amide I:5-II:N; lactam II:4-II:C) | 0.01562 | 0.0625 (≈ 0.0254 µM) | 0.0625 (≈ 0.0254 µM) | 0.0625 (≈ 0.0254 µM) | 0.0625 | 0.125 (≈ 0.0509 µM) | 0.03125 | 0.01562 | <1

More lines, main results first:

Row | Acinetobacter baumannii DSM 30008 MIC [2] [µg/mL] | MIC [3] [µg/mL] | MIC [4] [µg/mL] | MIC [5] [µg/mL] | Pseudomonas aeruginosa ATCC 27853 MIC [6] [µg/mL] | MIC (Escherichia coli 926415) [µg/mL] | Klebsiella pneumoniae SSI #3010 MIC [7] [µg/mL] | Escherichia coli ATCC 25922 MIC [8] [µg/mL] | Structure (SMILES) | Hemolysis at 200 μg/mL [1] [%]
4 | 0.03125 | 0.25 (≈ 0.101 µM) | 0.125 (≈ 0.0503 µM) | 0.25 (≈ 0.101 µM) | 0.0625 | 0.125 (≈ 0.0503 µM) | 0.0625 | 0.0625 | CC(C)C[C@@H]1NC(=O)[C@@H](CC(C)C)NC(=O)[C@H](CCN)NC(=O)[C@@H](NC(=O)[C@H](CN)NC(=O)[C@@H](NC(=O)[C@H](CCN)NC(=O)CC[C@@H]2NC(=O)[C@H](CO)NC(=O)[C@H](Cc3ccc(O)cc3)NC(=O)[C@@H](NC(=O)[C@@H](O)C(C)C)CSSC[C@@H](C(=O)N[C@@H](CO)C(=O)N[C@@H](CC(=O)O)C(N)=O)NC(=O)[C@H](C(C)(C)C)NC(=O)[C@H](CO)NC(=O)[C@H](Cc3c[nH]c4ccccc34)NC(=O)[C@H](CCN)NC(=O)[C@@H](CCN)NC2=O)[C@@H](C)O)CCNC(=O)[C@H]([C@@H](C)O)NC(=O)[C@H](CCN)NC(=O)[C@H](CCN)NC1=O [Ex. 372] (I: H-[Hiv]CYSE[dDab][Dab]WS[Tle]CSD-NH2 / II: [Dab]T[Dap][Dab][Dab][dL]L[Dab][Dab]T; disulfide I:2-I:11; amide I:5-II:N; lactam II:4-II:C) | <1
5 | 0.0625 | 1 (≈ 0.398 µM) | 0.25 (≈ 0.0994 µM) | 0.25 (≈ 0.0994 µM) | 0.125 | 0.5 (≈ 0.199 µM) | 0.0625 | 0.0625 | CC(=O)N[C@H](C(=O)N[C@H]1CSSC[C@@H](C(=O)N[C@@H](CO)C(=O)N[C@H](CC(=O)O)C(N)=O)NC(=O)[C@H](C(C)C)NC(=O)[C@H](CO)NC(=O)[C@H](Cc2c[nH]c3ccccc23)NC(=O)[C@H](CO)NC(=O)[C@@H](CCN)NC(=O)[C@H](CCC(=O)N[C@@H](CCN)C(=O)N[C@H](C(=O)N[C@@H](CN)C(=O)N[C@H]2CCNC(=O)[C@H]([C@@H](C)O)NC(=O)[C@H](CCN)NC(=O)[C@H](CCN)NC(=O)[C@H](CC(C)C)NC(=O)[C@@H](CC(C)C)NC(=O)[C@H](CCN)NC2=O)[C@@H](C)O)NC(=O)[C@H](CCN)NC(=O)[C@H](Cc2ccc(O)cc2)NC1=O)C(C)C [Ex. 374] (I: Ac-VCY[Dab]E[dDab]SWSVCS[dD]-NH2 / II: [Dab]T[Dap][Dab][Dab][dL]L[Dab][Dab]T; disulfide I:2-I:11; amide I:5-II:N; lactam II:4-II:C) | <1
6 | 0.03125 | 0.125 (≈ 0.0506 µM) | 0.0625 (≈ 0.0253 µM) | 0.0625 (≈ 0.0253 µM) | 0.0625 | 0.0625 (≈ 0.0253 µM) | 0.0625 | 0.0625 | CC(=O)N[C@H](C(=O)N[C@H]1CSSC[C@@H](C(=O)N[C@@H](CO)C(=O)N[C@H](C)C(N)=O)NC(=O)[C@H](C(C)C)NC(=O)[C@H](CO)NC(=O)[C@H](Cc2c[nH]c3ccccc23)NC(=O)[C@H](CO)NC(=O)[C@@H](CCN)NC(=O)[C@H](CCC(=O)N[C@@H](CCN)C(=O)N[C@H](C(=O)N[C@@H](CN)C(=O)N[C@H]2CCNC(=O)[C@H]([C@@H](C)O)NC(=O)[C@H](CCN)NC(=O)[C@H](CCN)NC(=O)[C@H](CC(C)C)NC(=O)[C@@H](CC(C)C)NC(=O)[C@H](CCN)NC2=O)[C@@H](C)O)NC(=O)[C@H](CCN)NC(=O)[C@H](Cc2ccc(O)cc2)NC1=O)C(C)C [Ex. 378] (I: Ac-VCY[Dab]E[dDab]SWSVCS[dA]-NH2 / II: [Dab]T[Dap][Dab][Dab][dL]L[Dab][Dab]T; disulfide I:2-I:11; amide I:5-II:N; lactam II:4-II:C) | <1
7 | 1 | >8 | 2 (≈ 0.865 µM) | 2 (≈ 0.865 µM) | 0.5 | 4 (≈ 1.73 µM) | 0.25 | 0.125 | CC(=O)N[C@H](C(=O)N[C@H]1CSSC[C@@H](C(=O)O)NC(=O)[C@H](C(C)C)NC(=O)[C@H](CO)NC(=O)[C@H](Cc2c[nH]c3ccccc23)NC(=O)[C@H](CO)NC(=O)[C@@H](CCN)NC(=O)[C@H](CCC(=O)N[C@@H](CCN)C(=O)N[C@H](C(=O)N[C@@H](CN)C(=O)N[C@H]2CCNC(=O)[C@H]([C@@H](C)O)NC(=O)[C@H](CCN)NC(=O)[C@H](CCN)NC(=O)[C@H](CC(C)C)NC(=O)[C@@H](CC(C)C)NC(=O)[C@H](CCN)NC2=O)[C@@H](C)O)NC(=O)[C@H](CCN)NC(=O)[C@H](Cc2ccc(O)cc2)NC1=O)C(C)C [Ex. 384] (I: Ac-VCY[Dab]E[dDab]SWSVC-OH / II: [Dab]T[Dap][Dab][Dab][dL]L[Dab][Dab]T; disulfide I:2-I:11; amide I:5-II:N; lactam II:4-II:C) | <1
